# System: hyperpigmented spots on facial skin
# Test: In vivo testing for hyperpigmented spot reduction (melanin Spot Area Fraction, split face, image analysis)
# Parameters: species or system human subjects
# Settings: baseline to Week 8, Beijing, approx. January 21 to March 21; compared to the vehicle
# Description: The 270 subjects were screened according to inclusion/exclusion criteria which included the following:
# Is willing to refrain from sun exposure by using supplied UV lotion and physical UV blocks, such as a hat, to avoid facial sunburn, tanning or wind burn.
# • 1. […] Two hundred and seventy subjects were recruited for the study.
compound,measurement,value
"NC(=O)c1cccnc1 [naicinamide, niacinamide]","effect on seasonal skin darkening, in words",mitigated the effects of seasonal skin darkening
